# Measured values from patent US20030232851A1, “Viral treatment” (The Procter & Gamble Company, priority 1999, published 2003).
# “And” between values parts separate entries of the source, which are not always exact repeats. Equal entries are not always repeated.
# What was measured:
# HIV-1 integrase = HIV-1 integrase (Human immunodeficiency virus type 1 group M subtype B, UniProt P04585); assay: HIV-1 integrase inhibition assay; type: biochemical; set-up: HIV-1 Integrase Inhibition, sample reading / HIV-1 Integrase Inhibition, mean: unit not given here; details: for HIV-1 Integrase Inhibition, sample reading: sample 1, sample 2
# Source text: A biochemical integrase assay described by Craigie et at (HIV, vol. 2: A practical Approach) Biochemistry, Molecular Biology and Drug Discovery, Ed. J. Kam 1995) to screen agents for their ability to inhibit HIV-1 integrase. In this system, a kinased oligonucleotide serves as the target of 3′ processing and the subsequent strand transfer reaction. The 3′ processing reaction involves the removal of 2 nucleotides from the 3′ ends of the substrate and this is followed by the strand transfer reaction in which the 3′ ends are joined to the exposed 5′ ends. The 20 μl reaction mixture contains 25 mM MOPS (pH 7.2), […] BSA, 10 mM β-mercaptoethanol, 10% glycerol, 7.5 mM MnCl2, 25 nM (7 ng) substrate (Oligo's Etc., Wilsonville, Oreg.) and 200 nM (128 ng) integrase (NIAID AIDS Research and Reference Reagent Program, Bethesda, Md.). The reaction proceeds at 37° C. for 1-2 hours and is terminated by the addition of 20 μl of sequencing stop solution (JSB Amersham, Arlington Heights, Ill.). The reaction products are visualized by autoradiography following electrophoresis in 15% polyacrylamide 6M Urea gel. The substrate migrates as a 30 mer, the product of 3′ processing migrates as an N-2 band and the strand transfer products migrate more slowly at various sizes larger than the substrate.
# HIV-1 cell line, CEMIIIB = assay: Long term in vitro study, CEMIIIB, reverse transcriptase; type: cell-based
# Description: A microtiter-based reveres transcriptase (RT) reaction is utilized (Buckheit et al (1991) AIDS Research and Human Retroviruses 7:295-302). Tritiated thymidine triphosphate (NEN)(TTP) is resuspended in distilled water at 5 Ci/ml. Poly rA and oligo dT are prepared as a stock solution which is kept at −20° C. The RT reaction buffer is prepared fresh on a daily basis and consists of 125 μl 1M EGTA, 125 μl water, 125 μl Triton X-100, 50 μl Tris (pH 7.4), 50 μl 1 MDDT, and 40 μl 1M MgCl2. These three solutions are mixed together in a ratio of 1 part TTP, 2.5 parts poly rA:oligo dT, 2.5 parts reaction buffer and 4 parts distilled water. Ten microliters of this reaction mixture is placed in a round bottom microtiter place and 15 μl of virus containing supernatant is added and mixed. The plate is incubated at 37° C. for 60 minutes. Following reaction, the reaction volume is spotted onto filter mats, washed 6 times for 5 minutes each in a 5% sodium phosphate buffer, 2 times for 1 minute each in distilled water, 2 times for 1 minute each in 70% ethanol, and then dried. The dried filter mat is placed in a plastic sample bag, Betaplate scintillation fluid is added and the bag is heat sealed. Incorporated radioactivity is quantified utilizing a Wallac Microbeta scintillation counter.
# Acute infection of most established human cell lines with HIV-1 results in the eventual establishment of a constitutive virus-producing chronically infected cell line. The cells can be passaged for long periods of time in culture without loss of virus production. These cells may be utilized to evaluate the effects of anti-HIV compounds on syncytium formation or to evaluate the effects of anti-HIV compounds on levels of virus production from these cells. […] Each of the cells contains an integrated HIV genome or provirus. Chronically infected CEM, H9 and U937 cell lines have been prepared and cultured by Southern Research Institute, Frederick Md. and are available from them.
# CEM-SS cells chronically infected with HIV isolate, for example SKI (CEM-SKI) are cultured in RPMI1640 tissue culture medium supplemented with 10% fetal bovine serum and antibiotics. […] CEM-SKI or other infected cells with no added drug are used as the control cells. Cells are allowed to grow to a density of approximately 1×10^6 cells/ml and are then passaged at a 1:10 dilution. […] The drug concentration in the flask is then increased two-fold and the cells maintained as above.
# The cell populations contain integrated copies of the HIV genome and constitutively produce HIV at relatively high levels or are latently infected and only produce virus after stimulation with phorbol esters, tumor necrosis factor or IL6 (U1 and ACH2). Reductions in virus products were observed when quantifying supernatant reverse transcriptase activity,
# A long term in vitro study of 2-(2-thienyl)-imidazolo [4,5-b]pyridine against an HIV-1 cell line, CEMIIIB was conducted at three different levels. The results with CEMIIIB cells were reported at weekly intervals. The CEMIIIB is a viral strain of the CEMSS cell line and is a chronic HIV cell line.
structure (smiles),measurement,setting,value
"c1csc(-c2nc3cccnc3[nH]2)c1 [2-(2-thienyl)-imidazolo [4,5-b]pyridine]",EC50,HIV-1 integrase,> 497 µM
same,"HIV-1 Integrase Inhibition, mean",HIV-1 integrase; 0.1 μg/ml,10577
same,"HIV-1 Integrase Inhibition, sample reading",HIV-1 integrase; 0.1 μg/ml,11155.2 and 9998.8
same,"HIV-1 Integrase Inhibition, mean",HIV-1 integrase; 1 μg/ml,10104
same,"HIV-1 Integrase Inhibition, sample reading",HIV-1 integrase; 1 μg/ml,10640.4 and 9568.4
same,"HIV-1 Integrase Inhibition, mean",HIV-1 integrase; 10 μg/ml,10580
same,"HIV-1 Integrase Inhibition, sample reading",HIV-1 integrase; 10 μg/ml,10814.1 and 10345.1
same,"HIV-1 Integrase Inhibition, mean",HIV-1 integrase; 100 μg/ml,7214
same,"HIV-1 Integrase Inhibition, sample reading",HIV-1 integrase; 100 μg/ml,7639.4 and 6788.6
same,reverse transcriptase data,"HIV-1 cell line, CEMIIIB; 7 μg/ml, day 4",4631
same,reverse transcriptase data,"HIV-1 cell line, CEMIIIB; 7 μg/ml, day 11",4222
same,reverse transcriptase data,"HIV-1 cell line, CEMIIIB; 7 μg/ml, day 18",843
same,reverse transcriptase data,"HIV-1 cell line, CEMIIIB; 7 μg/ml, day 25",1052
same,reverse transcriptase data,"HIV-1 cell line, CEMIIIB; 7 μg/ml, day 32",1456
same,reverse transcriptase data,"HIV-1 cell line, CEMIIIB; 7 μg/ml, day 39",4298
same,reverse transcriptase data,"HIV-1 cell line, CEMIIIB; 7 μg/ml, day 46",1643
same,reverse transcriptase data,"HIV-1 cell line, CEMIIIB; 7 μg/ml, day 53",1458
same,reverse transcriptase data,"HIV-1 cell line, CEMIIIB; 7 μg/ml, day 60",1409
same,reverse transcriptase data,"HIV-1 cell line, CEMIIIB; 7 μg/ml, day 67",1903
same,reverse transcriptase data,"HIV-1 cell line, CEMIIIB; 7 μg/ml, day 71",1832
same,reverse transcriptase data,"HIV-1 cell line, CEMIIIB; 7 μg/ml, day 74",1980
same,reverse transcriptase data,"HIV-1 cell line, CEMIIIB; 7 μg/ml, day 88",1520
same,reverse transcriptase data,"HIV-1 cell line, CEMIIIB; 7 μg/ml, day 95",1367
same,reverse transcriptase data,"HIV-1 cell line, CEMIIIB; 7 μg/ml, day 102",1497
same,reverse transcriptase data,"HIV-1 cell line, CEMIIIB; 7 μg/ml, day 109",1165
same,reverse transcriptase data,"HIV-1 cell line, CEMIIIB; 15 μg/ml, day 4",5622
same,reverse transcriptase data,"HIV-1 cell line, CEMIIIB; 15 μg/ml, day 11",1828
same,reverse transcriptase data,"HIV-1 cell line, CEMIIIB; 15 μg/ml, day 18",683
same,reverse transcriptase data,"HIV-1 cell line, CEMIIIB; 15 μg/ml, day 25",741
same,reverse transcriptase data,"HIV-1 cell line, CEMIIIB; 15 μg/ml, day 32",1005
same,reverse transcriptase data,"HIV-1 cell line, CEMIIIB; 15 μg/ml, day 39",948
same,reverse transcriptase data,"HIV-1 cell line, CEMIIIB; 15 μg/ml, day 46",1361
same,reverse transcriptase data,"HIV-1 cell line, CEMIIIB; 15 μg/ml, day 53",1281
same,reverse transcriptase data,"HIV-1 cell line, CEMIIIB; 15 μg/ml, day 60",679
same,reverse transcriptase data,"HIV-1 cell line, CEMIIIB; 15 μg/ml, day 67",1251
same,reverse transcriptase data,"HIV-1 cell line, CEMIIIB; 15 μg/ml, day 71",1241
same,reverse transcriptase data,"HIV-1 cell line, CEMIIIB; 15 μg/ml, day 74",1361
same,reverse transcriptase data,"HIV-1 cell line, CEMIIIB; 15 μg/ml, day 88",1201
same,reverse transcriptase data,"HIV-1 cell line, CEMIIIB; 15 μg/ml, day 95",562
same,reverse transcriptase data,"HIV-1 cell line, CEMIIIB; 15 μg/ml, day 102",1043
same,reverse transcriptase data,"HIV-1 cell line, CEMIIIB; 15 μg/ml, day 109",1036
same,reverse transcriptase data,"HIV-1 cell line, CEMIIIB; 30 μg/ml, day 4",1968
same,reverse transcriptase data,"HIV-1 cell line, CEMIIIB; 30 μg/ml, day 11",2145
same,reverse transcriptase data,"HIV-1 cell line, CEMIIIB; 30 μg/ml, day 18",554
same,reverse transcriptase data,"HIV-1 cell line, CEMIIIB; 30 μg/ml, day 25",436
same,reverse transcriptase data,"HIV-1 cell line, CEMIIIB; 30 μg/ml, day 32",712
same,reverse transcriptase data,"HIV-1 cell line, CEMIIIB; 30 μg/ml, day 39",520
same,reverse transcriptase data,"HIV-1 cell line, CEMIIIB; 30 μg/ml, day 46",281
same,reverse transcriptase data,"HIV-1 cell line, CEMIIIB; 30 μg/ml, day 53",543
same,reverse transcriptase data,"HIV-1 cell line, CEMIIIB; 30 μg/ml, day 60",406
same,reverse transcriptase data,"HIV-1 cell line, CEMIIIB; 30 μg/ml, day 67",391
same,reverse transcriptase data,"HIV-1 cell line, CEMIIIB; 30 μg/ml, day 71",281
same,reverse transcriptase data,"HIV-1 cell line, CEMIIIB; 30 μg/ml, day 74",651
same,reverse transcriptase data,"HIV-1 cell line, CEMIIIB; 30 μg/ml, day 88",241
same,reverse transcriptase data,"HIV-1 cell line, CEMIIIB; 30 μg/ml, day 95",102
same,reverse transcriptase data,"HIV-1 cell line, CEMIIIB; 30 μg/ml, day 102",256
same,reverse transcriptase data,"HIV-1 cell line, CEMIIIB; 30 μg/ml, day 109",376
same,reverse transcriptase data on continuation (in words),"HIV-1 cell line, CEMIIIB; run through 242 days",data remained consistent
